Reference: US6656956B2, “Benzimidazole derivatives, processes for preparing them and their use as pharmaceutical compositions” (Boehringer Ingelheim Pharma KG, priority 2001, dated 2003)
Where a name gives a salt, the structure may show the parent alone.

Target: T1, rh beta tryptase (Homo sapiens, UniProt Q15661)
T1 construct: purchased Promega
Assay: tryptase inhibition in vitro test (cleavage of N-p-tosyl-Gly-Pro-Lys-para-nitroaniline, p-nitroaniline measured at 405 nm)
Assay type: biochemical
Settings: rh beta tryptase 0.91 U/ml, substrate 0.6 mM, Tris HCl buffer with calcium and heparin, pH 7.4, 37° C., 5 minutes incubation; read-out: Tryptase-inhibiting activity
Experimental: The compounds according to the invention are characterised by their tryptase-inhibiting activity. This ability to inhibit tryptase was investigated using the test described below.
The measurement is carried out in Tris HCl buffer (100 mM), which additionally contains calcium (5 mM) and heparin ([…]), at pH 7.4. The standard used is rh beta tryptase which may be obtained commercially from Promega, for example. The substrate used is N-p-tosyl-Gly-Pro-Lys-para-nitroaniline in a concentration of 0.6 mM. The substrate is digested with tryptase to form p-nitroaniline which can be measured at 405 nm. Usually, an incubation period of 5 minutes and an incubation temperature of 37° C. are chosen. The enzyme activity used is 0.91 U/ml. The measurements are carried out in an Autoanalyser (Cobas Bio) made by Hofmann LaRoche. The potential inhibitory substances are used in concentrations of 10 μM in the screening, the inhibition of the tryptase being given in percent. The IC50 is determined at over 70% inhibition (concentration at which 50% of the enzyme activity is inhibited). After 5 minutes' pre-incubation of the potential inhibitory substances, the substrate is added to start the reaction, the formation of p-nitroaniline being taken as a measurement of the enzyme activity after 5 minutes, after testing the linearity.

T1 sequence (Q15661 31-275): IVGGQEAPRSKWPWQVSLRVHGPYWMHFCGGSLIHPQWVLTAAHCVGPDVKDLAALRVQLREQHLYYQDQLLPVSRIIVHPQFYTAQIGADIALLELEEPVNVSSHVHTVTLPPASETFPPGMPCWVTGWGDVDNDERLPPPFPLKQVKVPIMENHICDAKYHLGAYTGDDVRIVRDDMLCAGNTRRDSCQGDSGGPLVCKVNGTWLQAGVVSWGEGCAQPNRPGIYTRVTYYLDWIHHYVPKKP

Row | IC50 [nM] | Molecule
1 | 4 to 30 | Cn1c(CCc2ccc(C(=N)N)cc2)nc2cc(N(Cc3ccccc3)C(=O)CN3CCC(Nc4ccccn4)CC3)ccc21 [Example 57, N-{2-[2-(4-Amidinophenyl)-ethyl]-1-methyl-benzimidazol-5-yl}-N-[benzyl]-2-[4-(2-pyridylamino)-piperid-1-yl]-acetamide, dihydrochloride]
2 | 4 to 30 | Cn1c(CCc2ccc(C(=N)N)cc2)nc2cc(N(Cc3ccc(C(C)(C)C)cc3)C(=O)CN3CCC(Nc4ccccn4)CC3)ccc21 [Example 3, N-{2-[2-(4-Amidinophenyl)-ethyl]-1-methyl-benzimidazol-5-yl}-N-(4-tert-butylphenylmethyl)-2-[4-(2-pyridylamino)-piperid-1-yl]-acetamide, Dihydrochloride]
3 | 0.5 to 3 | CN(C(=O)CN1CCC(Nc2ccc(Cl)cc2Br)CC1)c1ccc2c(c1)nc(CCc1ccc(C(=N)N)cc1)n2C [Example 65, N-{2-[2-(4-Amidinophenyl)-ethyl]-1-methyl-benzimidazol-5-yl}-N-methyl-2-[4-(2-bromo-4-chloroamino)-piperid-1-yl]-acetamide, dihydrochloride]
4 | 0.5 to 3 | Cn1c(CCc2ccc(C(=N)N)cc2)nc2cc(N(Cc3cccc4ccccc34)C(=O)CN3CCC(Nc4ccc5ccccc5c4)CC3)ccc21 [Example 22, N-{2-[2-(4-Amidinophenyl)-ethyl]-1-methyl-benzimidazol-5-yl}-N-[naphth-1-ylmethyl]-2-[4-(2-naphthylamino)-piperid-1-yl]-acetamide, dihydrochloride]
5 | 31 to 1000 | CN(CCC(=O)O)C1CCN(CC(=O)N(Cc2cccc3ccccc23)c2ccc3c(c2)nc(CCc2ccc(C(=N)N)cc2)n3C)CC1 [Example 25, N-{2-[2-(4-Amidinophenyl)-ethyl]-1-methyl-benzimidazol-5-yl}-N-[naphth-1-ylmethyl]-2-[4-(N-methyl-N-propionic acid)-piperid-1-yl]-acetamide, diacetate]
6 | 31 to 1000 | CN(C(=O)CN1CCC(NCc2ccccn2)CC1)c1ccc2c(c1)nc(CCc1ccc(C(=N)N)cc1)n2C [Example 29, N-{2-[2-(4-Amidinophenyl)-ethyl]-1-methyl-benzimidazol-5-yl}-N-methyl-2-[4-(2-pyridylmethylamino)-piperid-1-yl]-acetamide, dihydrochloride]
7 | 4 to 30 | CN(C(=O)CN1CCC(Nc2ccccc2C(F)(F)F)CC1)c1ccc2c(c1)nc(CCc1ccc(C(=N)N)cc1)n2C [Example 38, N-{2-[2-(4-Amidinophenyl)-ethyl]-1-methyl-benzimidazol-5-yl}-N-methyl-2-[4-(2-trifluoromethylphenylamino)-piperid-1-yl]-acetamide, dihydrochloride]
8 | 4 to 30 | Cn1c(CCc2ccc(C(=N)N)cc2)nc2cc(N(Cc3cccc([N+](=O)[O-])c3)C(=O)CN3CCC(Nc4ccccn4)CC3)ccc21 [Example 50, N-{2-[2-(4-Amidinophenyl)-ethyl]-1-methyl-benzimidazol-5-yl}-N-[3-nitrophenylmethyl]-2-[4-(2-pyridylamino)-piperid-1-yl]-acetamide, dihydrochloride]
9 | 31 to 1000 | Cn1c(CCc2ccc(C(=N)N)cc2)nc2cc(N(Cc3cccc4ccccc34)C(=O)NCc3ccccc3)ccc21 [Example 5, N-{2-[2-(4-Amidinophenyl)-ethyl]-1-methyl-benzimidazol-5-yl}-N-(naphth-1-ylmethyl)-N′-benzyl-urea, Hydrochloride]
10 | 4 to 30 | CN(C(=O)CN1CCC(Nc2ccc(F)cc2Cl)CC1)c1ccc2c(c1)nc(CCc1ccc(CN)cc1)n2C [Example 84, Ditrifluoroacetate]
11 | 0.5 to 3 | CN(C(=O)CN1CCC(Nc2ccc(Cl)c(Cl)c2)CC1)c1ccc2c(c1)nc(CCc1ccc(C(=N)N)cc1)n2C [Example 107, N-{2-[2-(4-Amidinophenyl)-ethyl]-1-methyl-benzimidazol-5-yl}-N-methyl-2-[4-(3,4-dichlorophenylamino)-piperid-1-yl]-acetamide, dihydrochloride]
12 | 4 to 30 | Cn1c(CCc2ccc(C(=N)N)cc2)nc2cc(N(Cc3ccc(N)cc3)C(=O)CN3CCC(Nc4ccccc4)CC3)ccc21 [Example 44, N-{2-[2-(4-Amidinophenyl)-ethyl]-1-methyl-benzimidazol-5-yl}-N-[4-aminophenyl-methyl]-2-(4-phenylamino-piperid-1-yl)-acetamide, dihydrochloride]
13 | 0.5 to 3 | Cn1c(CCc2ccc(C(=N)N)cc2)nc2cc(N(Cc3cccc4ccccc34)C(=O)CN3CCC(Nc4cccc(Cl)c4)CC3)ccc21 [Example 11, N-{2-[2-(4-Amidinophenyl)-ethyl]-1-methyl-benzimidazol-5-yl}-N-[naphth-1-ylmethyl]-2-[4-(3-chlorophenylamino)-piperid-1-yl]-acetamide, dihydrochloride]
14 | 4 to 30 | Cc1ccccc1NC1CCN(CC(=O)N(C)c2ccc3c(c2)nc(CCc2ccc(C(=N)N)cc2)n3C)CC1 [Example 63, dihydrochloride]
15 | 31 to 1000 | CN(C(=O)CN1CCC(Nc2ccc(C(C)(C)C)cc2Cl)CC1)c1ccc2c(c1)nc(CCc1ccc(C(=N)N)cc1)n2C [Example 69, N-{2-[2-(4-Amidinophenyl)-ethyl]-1-methyl-benzimidazol-5-yl}-N-methyl-2-[4-(2-chloro-4-tert.butylamino)-piperid-1-yl]-acetamide, dihydrochloride]
16 | 0.5 to 3 | Cc1ccc(NC2CCN(CC(=O)N(C)c3ccc4c(c3)nc(CCc3ccc(C(=N)N)cc3)n4C)CC2)c(Cl)c1 [Example 61, N-{2-[2-(4-Amidinophenyl)-ethyl]-1-methyl-benzimidazol-5-yl}-N-methyl-2-[4-(2-chloro-4-methylamino)-piperid-1-yl]-acetamide, dihydrochloride]
17 | 0.5 to 3 | CN(C(=O)CN1CCC(Nc2cccc(Cl)c2)CC1)c1ccc2c(c1)nc(CCc1ccc(C(=N)N)cc1)n2C [Example 106, N-{2-[2-(4-Amidinophenyl)-ethyl]-1-methyl-benzimidazol-5-yl}-N-methyl-2-[4-(3-chlorophenylamino)-piperid-1-yl]-acetamide, dihydrochloride]
18 | 4 to 30 | CN(C)c1ccc(CN(C(=O)CN2CCC(Nc3ccccn3)CC2)c2ccc3c(c2)nc(CCc2ccc(C(=N)N)cc2)n3C)c2ccccc12 [Example 51, N-{2-[2-(4-Amidinophenyl)-ethyl]-1-methyl-benzimidazol-5-yl}-N-[4-dimethylamino-naphth-1-ylmethyl]-2-[4-(2-pyridylamino)-piperid-1-yl]-acetamide, dihydrochloride]
19 | 4 to 30 | CN(C(=O)CN1CCC(Nc2ccccc2OC(F)(F)F)CC1)c1ccc2c(c1)nc(CCc1ccc(C(=N)N)cc1)n2C [Example 39, N-{2-[2-(4-Amidinophenyl)-ethyl]-1-methyl-benzimidazol-5-yl}-N-methyl-2-[4-(2-trifluoromethoxyphenylamino)-piperid-1-yl]-acetamide, dihydrochloride]
20 | 4 to 30 | Cn1c(CCc2ccc(C(=N)N)cc2)nc2cc(N(Cc3cccc4ccccc34)C(=O)CN3CCC(Nc4ccncc4)CC3)ccc21 [Example 27, N-{2-[2-(4-Amidinophenyl)-ethyl]-1-methyl-benzimidazol-5-yl}-N-[naphth-1-ylmethyl]-2-[4-(4-pyridylamino)-piperid-1-yl]-acetamide, dihydrochloride]
21 | 0.5 to 3 | Cn1c(CCc2ccc(C(=N)N)cc2)nc2cc(N(Cc3cccc4ccccc34)C(=O)CN3CCC(Nc4cccnc4)CC3)ccc21 [Example 26, N-{2-[2-(4-Amidinophenyl)-ethyl]-1-methyl-benzimidazol-5-yl}-N-[naphth-1-ylmethyl]-2-[4-(3-pyridylamino)-piperid-1-yl]-acetamide, dihydrochloride]
22 | 4 to 30 | CN(C(=O)CN1CCC(Nc2ccc3c(c2)Cc2ccccc2-3)CC1)c1ccc2c(c1)nc(CCc1ccc(C(=N)N)cc1)n2C [Example 42, N-{2-[2-(4-Amidinophenyl)-ethyl]-1-methyl-benzimidazol-5-yl}-N-methyl-2-[4-(aminofluorene)-piperid-1-yl]-acetamide, dihydrochloride]
23 | 31 to 1000 | N-{2-[2-(4-Amidinophenyl)-ethyl]-1-methyl-benzimidazol-5- yl}-N-[naphth-1-ylmethyl]-N′-[4-(2-naphthylmethylamino)]- urea, hydrochloride [Example 80]
24 | 0.5 to 3 | Cc1ccc(NC2CCN(CC(=O)N(C)c3ccc4c(c3)nc(CCc3ccc(C(=N)N)cc3)n4C)CC2)c(Br)c1 [Example 66, N-{2-[2-(4-Amidinophenyl)-ethyl]-1-methyl-benzimidazol-5-yl}-N-methyl-2-[4-(2-bromo-4-methylamino)-piperid-1-yl]-acetamide, dihydrochloride]
25 | 31 to 1000 | Cn1c(CCc2ccc(C(=N)N)cc2)nc2cc(N(Cc3cccc4ccccc34)C(=O)Nc3ccccc3)ccc21 [Example 72, N-{2-[2-(4-Amidinophenyl)-ethyl]-1-methyl-benzimidazol-5-yl}-N-[naphth-1-ylmethyl]-N′-phenyl-urea, hydrochloride]

Row | Molecule | IC50 [nM]
26 | CCOC(=O)CCN(C(=O)CN1CCC(Nc2ccccn2)CC1)c1ccc2c(c1)nc(CCc1ccc(C(=N)N)cc1)n2C [Example 53, N-{2-[2-(4-Amidinophenyl)-ethyl]-1-methyl-benzimidazol-5-yl}-N-[ethyl ethanecarboxylate]-2-[4-(2-pyridylamino)-piperid-1-yl]-acetamide, dihydrochloride] | 4 to 30
